Assay results published in US20260069599A1, “INHIBITORS OF BROMODOMAIN-CONTAINING PROTEIN 4 AND PHOSPHOINOSITIDE 3-KINASE” (Board of Regents of the University of Nebraska, priority 2022, published 2026).
“Also recorded” adds a separate entry of the source. Read-outs that look alike come from different tables or passages of the source.

How the values were obtained:
ONS-76 cells = assay: Side population (SP) assay; type: cell-based; conditions: 30 minutes preincubation; control 4.57%
Description: After washing thrice with staining buffer, 1×10^6 cells were stained with 5 μg/mL of Hoechst 33342 (Thermo Scientific; 62,249) for 1 hour in an incubator with occasional shaking every 20 minutes. The PI solution 5 μL was added to exclude dead cells and analyzed with flow cytometry (LSRII, BD Biosciences).

MB cells = assay: Scratch (wound) cell migration assay; type: cell-based, human; conditions: 0 to 24 hours, vs untreated MB cells
Description: Regarding the cell migration, scratch distances and width closure were measured between images from time 0 to 24 hours. After 24 hours, the untreated MB cells migrated and covered approximately 50% to 60% of the wound area quantified at time zero. […] Initial wound edges marked initial cell migration and were used to identify the decrease in wound width throughout the experiment. Migration distances were shown separately during the period of 0-24 hours. A significant difference in migration distance was found for the treated group compared to the control, while no difference in motility was found within the treated groups.

HD-MB03 cells [1] = assay: Cell viability MTT assay in HD-MB03 cells; type: cell-based, human
Description: For cell viability assay, DAOY cells from SHH-MB group and HD-MB03 from Group 3 MB were exposed to new analogs in a range of concentrations. In brief, cells were seeded in 96-well plate with a density of 3×10^3 cells/well density for 16 hours. Cells were then treated with different drug concentrations for 48-72 hours. MTT assay reagent was added to the cells and after incubation for 4 hours, formazan crystals were dissolved in 200 μL DMSO, and the absorbance was determined using a microplate reader (Molecular Devices Me5). The IC50 was determined by nonlinear least square regression by performing each experiment in triplicate.

HD-MB03 cells [2] = assay: Annexin V/PI apoptosis assay in HD-MB03 cells; type: cell-based, human; conditions: 48 hours of treatment; untreated 29.76%
Description: For apoptosis assay, the cells were collected as above and stained with 500 μL 1× binding buffer containing 5 μL annexin V-FITC and 10 μL propidium iodide (PI) in the dark for 5 minutes. Flow cytometry (FACSCalibur™ cytometer, BD Biosciences) was performed to quantify and calculate the cell apoptosis rate. AV-FITC values were set horizontally, and PI values were set as vertical axes. All experiments were performed in triplicate.

[3] = system: DAOY and HD-MB03 cell-generated tumors; assay: Subcutaneous MB tumor xenograft model; type: in vivo; conditions: for tumor growth / tumor burden: 15 mg/kg dose, vs vehicle treated control
Description: All the animal-related experiments were performed according to the Institutional Animal Care and Use Committee (IACUC) of the University of Nebraska Medical Center's approved protocol and met federal guidelines. Subcutaneous and orthotopic xenograft models were generated in this study. For establishing the xenograft model, DAOY cells (1×10^6) were injected into the right flank of 8-10 weeks old male and female mice. Tumor growth was measured non-invasively by using vernier calipers. For both measurements, tumor volumes were calculated by using the following formula: Volume=(Length×Width^2)/2.
A total of seven injections were given, and the mouse body weights were measured before every injection. The tumor growth was monitored by calipers in the case of the xenograft model and by IVIS imaging for the orthotopic model. For histological examination, the major organs of representative mice from each animal group were dissected and stained with H&E. Tissues after being fixed with 10% paraformaldehyde solution for 24 hours were embedded in 5 μm thick sections of paraffin, and were stained for different proteins. Stained slides were imaged at 40× magnification using an iScan HT Slide Scanner (Ventana Medical Systems, Inc, AZ).

DAOY cells = assay: Cell cycle analysis in DAOY cells; type: cell-based, human; conditions: 5 μM, 48 hours; control 52.8%
Description: (§1) FIGS. 3A-3F show the effect of MDP5 treatment on cell cycle analysis, induction of apoptosis, and colony formation assay in MB cells. […] Histograms show the quantitative analysis of cell cycle assay for DAOY (FIG. 3A) and HD-MB03 (FIG. 3B) cells (n=5; mean±S.D., p<0.05). […] FIG. 3C provides images of cells treated with the indicated compounds. […] FIGS. 3D and 3E provide graphs of the apoptotic assay showing higher numbers of apoptotic cells in MDP5 treated groups (n=5; mean±S.D.; p<0.05). FIG. 3F provides a graph of the relative expression of BCL2 and MYCN target genes after treatment, as determined by RT-PCR.
(§2) Cell cycle distribution was determined in proliferating MB cells. […] Cells were harvested with 0.25% EDTA-free trypsin (Gibco) and washed twice in ice-cold PBS. Control and treated cells (0.1×10^6) were stained with FxCycle™ PI/RNase Staining Solution (ThermoFisher Scientific) and analyzed for DNA content via flow cytometry.

HD-MB03 cells [4] = assay: Cell cycle analysis in HD-MB03 cells; type: cell-based, human; conditions: 5 μM, 48 hours; control 44.7%
Description: as §1, §2

Compound | percentage of SP proportion (ONS-76 cells) | cell migration into wound area (MB cells) | IC50 (HD-MB03 cells [1]; 48-72 hours, read-out: IC50 in HD-MB03 cells) | percentage of apoptosis, HD-MB03 (HD-MB03 cells [2]) | tumor growth / tumor burden [3] | cells in the G1 phase, DAOY (DAOY cells) | cells in the G1 phase, HD-MB03 (HD-MB03 cells [4]) | IC50 (HD-MB03 cells [1]; Homo sapiens, HD-MB03, 48-72 hours, read-out: IC50 in HD-MB03 cells) | IC50 (HD-MB03 cells [1]; Homo sapiens, HD-MB03, 48-72 hours, read-out: IC50 in HDMB-03 cells (unit printed M)) | toxicity / tolerability by body weight ([3]; 20 mg/kg i.v. every third day) | histologic examination of major organs (liver, lung, spleen, heart, kidneys) ([3]; 20 mg/kg, after completion of treatment) | tumor growth (tumor volume) ([3]; 20 mg/kg, vs vehicle/control group) | H&E staining and Ki-67 IHC of tumors ([3]; DAOY and HD-MB03 generated tumors) | tolerability by body weight and histological examination of vital organs ([3]; tested dose of b195 (15 mg/kg), vs vehicle control)
O=c1cc(N2CCOCC2)oc2c(-c3ccc4c(c3)OCCO4)csc12 [SF2523, reference compound] | 2.57% | lesser migration | 5.14 µM | 54% | significant inhibition of tumor growth | 73.1% | 58.9% | – | – | – | – | – | – | –
O=C(/C=C/N1CCOCC1)c1cccc(-c2cc3c(cc2Br)OCCO3)c1O [MDP1, (E)-1-(3-(7-bromo-2,3-dihydrobenzo [b][1,4]dioxin-6-yl)-2-hydroxyphenyl)-3-morpholinoprop-2-en-1-one] | 0.7% | lesser migration | – | 65.66% | significant inhibition of tumor growth | 40.1% | 26.2% | 5.56 µM | – | – | – | – | – | –
O=c1cc(N2CCOCC2)oc2c(-c3ccc4c(c3)OCCO4)cccc12 [MDP5, 8-(2,3-dihydrobenzo [b][1,4]dioxin-6-yl)-2-morpholino-4H-chromen-4-one] | 0.9% | lesser migration | – | 65.15% | significant inhibition of tumor growth | 73.2% | 52.2% | – | 5.14 µM | no sign of toxicity; also recorded: well tolerated (no bodyweight change) | did not demonstrate toxicity | significantly affected tumor growth; also recorded: reduced tumor growth compared to the control group | suppressed cell proliferation and decreased tumor burden | well tolerated
